One series deals with recurrent GBM. The settings on record: in combination with Lomustine, patients with recurrent GBM; cited from earlier work.
Series [1] deals with U87 cells. Nature of the series: Acute toxicity of polyamines to U87 cells in liquid medium (CellToxGreen fluorescence, bright field images). It is filed as cell-based. The conditions noted are these: for EC50: Homo sapiens, U-87 MG, 1 h, U87 cells, liquid medium, 60 minutes incubation, CellToxGreen normalised to lysis buffer control, read-out: EC50 (cell death). On the procedure: FIG. 1. Comparative acute toxicity of selected linear polyamines towards cancer cell line of neuroepithelial origin. U87 cells were plated in 24-well plates and grown for about 3 days in liquid medium up to 50% confluency. Cell death was assayed via CellToxGreen (Promega) fluorescence after 60 minutes incubation with a polyamine and normalised to control in a lysis buffer.
We tested polyamine toxicity to U87 cells, an invasive cancer cell line of neuroepithelial origin, when they were plated and incubated in full MEM medium, containing 10% foetal bovine serum.

In the next series the test system is U87 cell line spheroid. The conditions noted are these: for Invasion from spheroid: 2 wt % HA gel pre-mixed with polyamine; for Binding to HA (rank among polyamines): inferred from spheroid invasion in 2 wt % HA gel. How it is done: FIG. 3. Neutralisation of polyamine toxicity by matrix polyanions assayed in vitro. U87 cells were suspended at 5K cells per spheroid and then grown in medium in non-adherent plates for 7-10 days until seeded into 2% HA gel pre-mixed with a polyamine for 24 hours. (A) Representative microscopic images (multiplication 5×, field view: 1800 μm×2500 μm) were taken on day 2 after spheroid was seeded into the gel. (B) Area of invasion was determined by measurement of invasion distance from the centre of four independent spheroids in four directions on days 1, 2 and 3.
Strength of polyamine binding to polyanions (hyaluronic acid, GAGs) in (normal) brain ECM is a decisive factor which targets polyamine toxicity towards cancer cells rather than brain cells. When binding is strong, a polyamine will be neutralised before reaching cellular membrane which is surrounded by extracellular polyanions. When binding is weak, sufficient concentration of polyamine may kill the cell even though the cell is surrounded by polyanions. To test the binding strength of different polyamines, we developed a 3D neutralisation assay: the invasion from a neuroepithelial cancer spheroid (U87 cell line) was monitored in vitro in 2 wt % HA gel pre-mixed with different polyamines. Invasion from spheroid was indicative of cell survival and thus predictive of a strong binding of the polyamine to brain polyanions in vivo. A weak in vitro binding of a polyamine to HA manifested itself by the absence of invasion, i.e. cell poisoning, and thus was predictive of weak binding of the polyamine to brain polyanions in vivo.
In detail, polyamines were mixed with 2 wt % hyaluronic acid mixed with full MEM medium containing 10% foetal bovine serum to support cell growth to achieve the desired polyamine concentration and the resulting hyaluronic acid/polyamine gel plated in 24-well plates. One 3D tumour spheroid of U87 GBM cells was placed in each well. The invasion into the surrounding hyaluronic acid-rich matrix was imaged over several days and the invasion area measured by determining the maximum invasion distance in four orthogonal directions from the centre of the tumour spheroid and compared to controls with no polyamine in the hyaluronic acid matrix.

Series [2] deals with U87 cells. As to the kind of experiment: 2D-scanning cell toxicity assay: polyamine injected into well of U87 cells under 3 wt % HA gel. The class given is cell-based. The settings on record: for Level of protection by HA of distant cells (rank): FIG. 4. On the procedure:
FIG. 4. […] Adherent cells were grown in 24-well plates in 3% HA gel until achieved 40-50% confluency. Non-toxic fluorescent dye—CellToxGreen (Promega)—was premixed into the gel. 30 μL of polyamine ( 1/20 of total gel volume) was injected at 6 o'clock position of the well. CellToxGreen penetrated only into the dead cells with compromised membranes, bound to their DNA and emitted green fluorescence, i.e. increase in fluorescence intensity quantified cell death. Cells were monitored for 7 days using well scanning functions of a fluorescent reader FLUOstar (BMG Labtech, Germany). (A) Drawing of a well to show the point of injection of polyamine and the fate of cells near the injection point; and a representative image of a well assembled from 44 scanned patches. The higher the fluorescence intensity of a patch, the higher was the number of dead cells. (B) Ratio of dead cell fluorescence in two opposite areas of the well. Ratio=[fluorescence intensity in 22 patches adjacent to the injection point]/[fluorescence intensity in 22 patches opposing the injection point]. […] Multiplication 5×, field view: 2500 μm×1800 μm.
When brain cancers develop, it is within the polyanion (hyaluronic acid and GAG)-enriched environment of normal brain matrix, which in the tumour vicinity is degraded, diluted by oedema while the tumour itself synthesizes new specialized matrix with very different composition to normal brain (see Example 2). […] First, a cancer cell line of the neuroepithelial origin (U87) was plated, given a day for the cells to adhere to the well bottom and then covered by HA gel as a model of the polyanion-rich, normal brain ECM. Then, a polyamine was injected at the 6 o'clock position of each well (see FIG. 4). In the vicinity of the injection point, cells were expected to die, because the initial polyamine concentration was maximal in this region and the HA gel in this region was diluted by the carrier solvent (PBS). However, cells distant from the injection point were still surrounded by undiluted HA and the HA gel was expected to sequester the polyamine as it diffused through the HA gel, providing the polyamine binds strongly to HA and there is sufficient HA (i.e. the HA is not diluted) to bind sufficient polyamine to reduce the effective polyamine concentration to below the EC50 value. Thus, cells more distant from the injection point were expected to be protected from the polyamine, for as long as the polyamine remained strongly bound to the HA gel. Cell death was imaged over the well by scanning the well bottom for the fluorescence of a mortality dye, which binds DNA of cells with impaired membrane integrity.
In detail, U87 glioblastoma cells were grown in 24-well plates at with full MEM medium containing 10% foetal bovine serum until a layer of confluent cells covered the bottom of each well (FIG. 4). This liquid media was then removed leaving a layer of cells adhered to the bottom of each well. […] This hyaluronic acid plus protein gel represents a model of human brain extracellular matrix. CEIIToxGreen is a non-toxic molecule that can only enter dead cells, where it binds to DNA and emits green fluorescence. CEIIToxGreen thus allowed us to follow cell death over time in this assay by monitoring green fluorescence.
30 μL of different concentrations of polyamine was injected at the 6 o'clock position of each well and mapped the dead cell content in each well as a function of time. Specifically, each well was mapped as 44 congruent, contiguous tiles (FIG. 4A) and cell death in a tile was assayed as the net green fluorescence intensity from the tile.

The test system of the next series is NCr nu/nu mouse brain. On the procedure: FIG. 5. Weight gain and survival of NCr nu/nu mice after a single polyamine injection into the brain. 6 animals per group were randomised on day 0, and on day 1 injected with 10 μL of 4 and 10 mM of the following three polyamines: putrescine, spermidine and cadaverine. Animal weight, survival and behaviour was monitored for 14 days.
To test polyamine safety in vivo and assess their effect on brain function, a single injection of 10 μL into NCr nu/nu mouse brain was selected as a model. A 10 μL volume in a mouse brain correlates well with a 3 cm diameter tumour in human brain, which is a typical size, for example, for initial glioblastoma diagnosis. The injected volume is thus similar to what might be needed to be injected into a human brain tumour. Three polyamines were selected for testing: putrescine, spermidine and cadaverine. Polyamines were tested in two concentrations: the lowest concentration, 4 mM, was expected to be safe based on in vitro assays and the highest concentration, 10 mM, to show some toxicity for cadaverine at least.

Read-outs that look alike come from different tables or passages of the source.

For “Bevacizumab: monoclonal antibody against vascular endothelial growth factor (VEGF)”, in the series with recurrent GBM, the “Increase in median progression-free survival” value is given as 0.23 months and the “Increase in overall survival” value is given as 1.4 months.
Usually EC50 stands for the concentration that produces a half-maximal response. Turning to `NCCCCNCCCN` [spermidine], the EC50 in the series with U87 cells [1] is 13 to 14 mM. For the same compound, the “Cytotoxicity in hyaluronic acid-rich matrix compared with media” value in the series on U87 cell line spheroid (2 wt % HA gel) is given as “almost completely abrogated”. Also, in the series with U87 cell line spheroid, the Invasion from spheroid entry is recorded as “invasion from spheroid was not affected” and the “Binding to HA (rank among polyamines)” value was “strongest binder”. In the series on U87 cell line spheroid (4-12 mM), the “Toxicity in 2 wt % hyaluronic acid” value is listed as “non-toxic”. In addition, in the series on U87 cells [2] (4-12 mM, 3 wt % HA gel), the “Time cells on opposite side of well remained viable” value was “at least 7 days”, the “Time in which cells close to injection site die” value was in the range of 48 to 72 h and the “Toxicity for U87 cells close to injection site” value is reported as “highly toxic”. Moreover, in the series with U87 cells [2] (both 4 mM and 10 mM), the “Protection of cells in HA gel distant from injection” value (from here on “Protection of cells”) is reported as “protected”.
Take `NCCCCCN` [cadaverine]: in the series on U87 cells [1], the EC50 worked out at 6 mM. In the series on U87 cell line spheroid (human), the “Concentrations showing cytotoxic effects in hyaluronic acid-rich matrix” value (from here on “Concentrations showing cytotoxic effects”) was > 4000 µM. Besides, in the series on NCr nu/nu mouse brain (10 mM, 10 μL into brain), the “Animals died after 30 min of injection” value was 3 out of 6, the “Further animals died within 24 hours” value came to 2 animals and the Survival entry is on record as “Only one animal survived”. Moreover, the “Weight loss of surviving animal” value in the series with NCr nu/nu mouse brain (10 mM, day 3, then fully recovered) was determined as 18%. Moreover, the “Protection of cells” value with U87 cells [2] (10 mM) is on record as “not protected”. Also, the “Level of protection by HA of distant cells (rank)” value with U87 cells [2] (3 wt % HA gel) was “lowest”.
As to `NCCCNCCCCNCCCN` [spermine], the “Mode of cell death in bright field images” value with U87 cells [1] (U87 cell suspensions, 10 mM and 20 mM, within 60 minutes) is “severe membrane disruption resulting in cell fragmentation”. In the series on U87 cell line spheroid, the Invasion from spheroid entry is given as “invasion was strongly suppressed” and the “Binding to HA (rank among polyamines)” value is “weakest binder”. Besides, in the series with U87 cell line spheroid (human), the “Concentrations showing cytotoxic effects” value was > 4000 µM. Besides, in the series with U87 cells [2] (10 mM, 3 wt % HA), the “Reduction of toxicity in hyaluronic acid-rich environment compared to same cell type in medium” value was 3 fold less toxic. Further, in the series with U87 cells [2] (4-6 mM, 3 wt % HA gel), the “Effect on cells a few millimetres away from injection point” value was “benign” and the “Toxicity to cells close to injection point” value is listed as “toxic”.
On to `NCCCCCCNCCCCCCN` [BHMTA, bis(hexamethylene)triamine], for which the “Concentrations showing cytotoxic effects” value in the series with U87 cell line spheroid was > 4000 µM.
`NCCCCN` [putrescine]: the “Cytotoxicity in hyaluronic acid-rich matrix compared with media” value in the series with U87 cell line spheroid is on record as “almost completely abrogated”. The “Acute toxicity in vivo” value with NCr nu/nu mouse brain (either concentration (4 mM, 10 mM), 10 μL into brain) is “Neither putrescine nor spermidine demonstrated acute toxicity”. In addition, the “Level of protection by HA of distant cells (rank)” value in the series on U87 cells [2] (3 wt % HA gel) is recorded as “highest”. In addition, the “Protection of cells” value in the series with U87 cells [2] (both 4 mM and 10 mM) is “protected”.

Values taken from patent US20240335397A1, “USE OF POLYAMINES IN THE TREATMENT OF BRAIN TUMOURS” (priority 2021, published 2024).
